{"source": "patent US8461176B2", "about": "“Enantiomerically enriched aryloazol-2-yl cyanoethylamino compounds, method of making and method of using thereof” (Merial Limited, priority 2008, dated 2013)"}
{"system": "Haemonchus contortus", "test": "Method A: screening of activity against Haemonchus contortus L1 larvae in microtitre plate (development to L3 / motility)", "settings": "Haemonchus contortus, 96 h; test concentration 0.0025 ppm; 4 days assessment", "description": "(§1) Method A: Screening Method to Test Activity of Compounds Against Haemonchus contortus.", "units": {"inhibition at 0.0025 ppm": "%"}}
{"smiles": "CC(C#N)(Cn1nc2c(Cl)cc(Cl)c(Cl)c2n1)NC(=O)c1ccc(C(F)(F)F)cc1", "note": "(centres unmarked) [Compound 1.101, N-[1-Cyano-1-methyl-2-(4,5,7-trichloro-2H-benzotriazol-2-yl)-ethyl]-4-trifluoromethylbenzamide]", "inhibition at 0.0025 ppm": "≥ 90"}
{"smiles": "CC(C#N)(Cn1cc2c(Cl)cc(Cl)c(Cl)c2n1)NC(=O)c1ccc(Cl)cc1", "note": "(centres unmarked) [Compound 2.061, N-[1-Cyano-1-methyl-2-(4,6,7-trichloro-2H-indazol-2-yl)ethyl]-4-chlorobenzamide]", "inhibition at 0.0025 ppm": "≥ 90"}
{"smiles": "CC(C#N)(Cn1cc2c(Cl)cc(Cl)c(Cl)c2n1)NC(=O)c1ccc(C(F)(F)F)cc1", "note": "(centres unmarked) [Compound 2.062, N-[1-Cyano-1-methyl-2-(4,6,7-trichloro-2H-indazol-2-yl)ethyl]-4-trifluoromethylbenzamide]", "inhibition at 0.0025 ppm": "≥ 90"}
{"smiles": "CC(C#N)(Cn1cc2c(Cl)cc(Cl)c(Cl)c2n1)NC(=O)c1ccc(C#N)cc1", "note": "(centres unmarked) [Compound 2.063, N-[1-Cyano-1-methyl-2-(4,6,7-trichloro-2H-indazol-2-yl)ethyl]-4-cyanobenzamide]", "inhibition at 0.0025 ppm": "≥ 90"}
{"smiles": "CC(C#N)(Cn1cc2c(Cl)cc(Cl)c(Cl)c2n1)NC(=O)c1ccc(OC(F)(F)C(F)F)cc1", "note": "(centres unmarked) [Compound 2.066, N-[1-Cyano-1-methyl-2-(4,6,7-trichloro-2H-indazol-2-yl)ethyl]-4-(1,1,2,2-tetrafluoroethoxy)benzamide]", "inhibition at 0.0025 ppm": "≥ 90"}
{"smiles": "CC(C#N)(Cn1cc2c(Cl)cc(Cl)c(Cl)c2n1)NC(=O)c1ccc(I)cc1", "note": "(centres unmarked) [Compound 2.068, N-[1-Cyano-1-methyl-2-(4,6,7-trichloro-2H-indazol-2-yl)ethyl]-4-iodobenzamide]", "inhibition at 0.0025 ppm": "≥ 90"}
{"smiles": "CC(C#N)(Cn1cc2ncc(I)cc2n1)NC(=O)c1ccc(OC(F)(F)F)cc1", "note": "(centres unmarked) [Compound 3.026, N-[1-Cyano-2-(6-iodo-2H-pyrazolo[4,3-b]pyridin-2-yl)-1-methylethyl]-4-trifluoromethoxybenzamide]", "inhibition at 0.0025 ppm": "≥ 90"}
{"system": "Haemonchus contortus", "test": "Method A: screening of activity against Haemonchus contortus L1 larvae in microtitre plate (development to L3 / motility)", "settings": "Haemonchus contortus, 96 h; test concentration 0.01 ppm; 4 days assessment", "description": "as §1", "units": {"inhibition at 0.01 ppm": "%"}}
{"smiles": "CC(C#N)(Cn1nc2c(Br)cc(Cl)c(Br)c2n1)NC(=O)c1ccc(C#N)cc1", "note": "(centres unmarked) [Compound 1.098, N-[2-(5-Chloro-4,7-dibromo-2H-benzotriazol-2-yl)-1-cyano-1-methylethyl]-4-cyanobenzamide]", "inhibition at 0.01 ppm": "≥ 90"}
{"smiles": "CC(C#N)(Cn1nc2c(Br)cc(Cl)c(Br)c2n1)NC(=O)c1ccc(OC(F)(F)C(F)F)cc1", "note": "(centres unmarked) [Compound 1.099, N-[2-(5-Chloro-4,7-dibromo-2H-benzotriazol-2-yl)-1-cyano-1-methylethyl]-4-(1,1,2,2-tetrafluoroethoxy)benzamide]", "inhibition at 0.01 ppm": "≥ 90"}
{"smiles": "CC(C#N)(Cn1nc2c(Cl)cc(Cl)c(Cl)c2n1)NC(=O)c1ccc(OC(F)(F)C(F)F)cc1", "note": "(centres unmarked) [Compound 1.103, N-[1-Cyano-1-methyl-2-(4,5,7-trichloro-2H-benzotriazol-2-yl)-ethyl]-4-(1,1,2,2-tetrafluoroethoxy)benzamide]", "inhibition at 0.01 ppm": "≥ 90"}
{"smiles": "CC(C#N)(Cn1cc2c(Cl)cc(Cl)c(Cl)c2n1)NC(=O)c1ccc([N+](=O)[O-])cc1", "note": "(centres unmarked) [Compound 2.069, N-[1-Cyano-1-methyl-2-(4,6,7-trichloro-2H-indazol-2-yl)ethyl]-4-nitrobenzamide]", "inhibition at 0.01 ppm": "≥ 90"}
{"smiles": "CC(C#N)(Cn1cc2c(Cl)cc(Cl)c(Cl)c2n1)NC(=O)c1ccc(C(F)(F)F)cc1F", "note": "(centres unmarked) [Compound 2.187, N-[1-Cyano-1-methyl-2-(4,6,7-trichloro-2H-indazol-2-yl)ethyl]-2-fluoro-4-trifluoromethylbenzamide]", "inhibition at 0.01 ppm": "≥ 90"}
{"smiles": "CC(C#N)(Cn1cc2c(Cl)cc(Cl)c(Cl)c2n1)NC(=O)c1ccc(C(F)(F)F)c(F)c1", "note": "(centres unmarked) [Compound 2.190, N-[1-Cyano-1-methyl-2-(4,6,7-trichloro-2H-indazol-2-yl)ethyl]-3-fluoro-4-trifluoromethylbenzamide]", "inhibition at 0.01 ppm": "≥ 90"}
{"smiles": "CC(C#N)(Cn1nc2cc(Cl)cnc2c1Br)NC(=O)c1ccc(OC(F)(F)F)cc1", "note": "(centres unmarked) [Compound 3.019, N-[2-(3-Bromo-6-chloro-2H-pyrazolo[4,3-b]pyridin-2-yl)-1-cyano-1-methylethyl]-4-trifluoromethoxybenzamide]", "inhibition at 0.01 ppm": "≥ 90"}
{"system": "Haemonchus contortus", "test": "Method A: screening of activity against Haemonchus contortus L1 larvae in microtitre plate (development to L3 / motility)", "settings": "Haemonchus contortus, 96 h; test concentration 0.04 ppm; 4 days assessment", "description": "as §1", "units": {"inhibition at 0.04 ppm": "%"}}
{"smiles": "CC(C#N)(Cn1nc2c(Cl)cc(Cl)c(Cl)c2n1)NC(=O)c1ccc(I)cc1", "note": "(centres unmarked) [Compound 1.100, N-[1-Cyano-1-methyl-2-(4,5,7-trichloro-2H-benzotriazol-2-yl)-ethyl]-4-iodobenzamide]", "inhibition at 0.04 ppm": "≥ 90"}
{"smiles": "CC(C#N)(Cn1nc2c(Cl)cc(Cl)c(Cl)c2n1)NC(=O)c1ccc(C#N)cc1", "note": "(centres unmarked) [Compound 1.102, N-[1-Cyano-1-methyl-2-(4,5,7-trichloro-2H-benzotriazol-2-yl)-ethyl]-4-cyanobenzamide]", "inhibition at 0.04 ppm": "≥ 90"}
{"smiles": "CC(C#N)(Cn1nc2c(Cl)cc(Cl)c(Cl)c2n1)NC(=O)c1ccc(C(F)(F)F)cc1F", "note": "(centres unmarked) [Compound 1.143, N-[1-Cyano-1-methyl-2-(4,5,7-trichloro-2H-benzotriazol-2-yl)-ethyl]-2-fluoro-4-trifluoromethylbenzamide]", "inhibition at 0.04 ppm": "≥ 90"}
{"smiles": "CC(C#N)(Cn1cc2c(Cl)cc(Cl)c(Cl)c2n1)NC(=O)c1ccc(Oc2ccccc2)cc1", "note": "(centres unmarked) [Compound 2.067, N-[1-Cyano-1-methyl-2-(4,6,7-trichloro-2H-indazol-2-yl)ethyl]-4-phenoxybenzamide]", "inhibition at 0.04 ppm": "≥ 90"}
{"smiles": "CC(C#N)(Cn1cc2c(Cl)cc(Cl)c(Cl)c2n1)NC(=O)c1ccc(F)cc1F", "note": "(centres unmarked) [Compound 2.228, N-[1-Cyano-1-methyl-2-(4,6,7-trichloro-2H-indazol-2-yl)ethyl]-2,4-difluorobenzamide]", "inhibition at 0.04 ppm": "≥ 90"}
{"smiles": "CC(C#N)(Cn1cc2c(Cl)cc(Cl)c(Cl)c2n1)NC(=O)c1ccc(Cl)cc1Cl", "note": "(centres unmarked) [Compound 2.230, 2,4-Dichloro-N-[1-cyano-1-methyl-2-(4,6,7-trichloro-2H-indazol-2-yl)ethyl]benzamide]", "inhibition at 0.04 ppm": "≥ 90"}
{"system": "Haemonchus contortus", "test": "Method A: screening of activity against Haemonchus contortus L1 larvae in microtitre plate (development to L3 / motility)", "settings": "Haemonchus contortus, 96 h; test concentration 0.15 ppm; 4 days assessment", "description": "as §1", "units": {"inhibition at 0.15 ppm": "%"}}
{"smiles": "C=Cc1cc(Cl)cc2nn(CC(C)(C#N)NC(=O)c3ccc(OC(F)(F)F)cc3)nc12", "note": "(centres unmarked) [Compound 1.075, N-[2-(6-Chloro-4-vinyl-2H-benzotriazol-2-yl)-1-cyano-1-methylethyl]-4-trifluoromethoxybenzamide]", "inhibition at 0.15 ppm": "≥ 90"}
{"smiles": "CC(C#N)(Cn1nc2c(Cl)cc(Cl)c(Cl)c2n1)NC(=O)c1ccc(C(F)(F)F)c(F)c1", "note": "(centres unmarked) [Compound 1.146, N-[1-Cyano-1-methyl-2-(4,5,7-trichloro-2H-benzotriazol-2-yl)-ethyl]-3-fluoro-4-trifluoromethylbenzamide]", "inhibition at 0.15 ppm": "≥ 90"}
{"smiles": "CCOc1c2cc(Cl)ccc2nn1CC(C)(C#N)NC(=O)c1ccc(OC(F)(F)F)cc1", "note": "(centres unmarked) [Compound 2.014, N-[2-(5-Chloro-3-ethoxy-2H-indazol-2-yl)-1-cyano-1-methylethyl]-4-trifluoromethoxybenzamide]", "inhibition at 0.15 ppm": "≥ 90"}
{"smiles": "COc1c2ccccc2nn1CC(C)(C#N)NC(=O)c1ccc(OC(F)(F)F)cc1", "note": "(centres unmarked) [Compound 2.016, N-[1-Cyano-2-(3-methoxy-2H-indazol-2-yl)-1-methylethyl]-4-trifluoromethoxybenzamide]", "inhibition at 0.15 ppm": "≥ 90"}
{"smiles": "CCOc1c2ccc(Cl)cc2nn1CC(C)(C#N)NC(=O)c1ccc(OC(F)(F)F)cc1", "note": "(centres unmarked) [Compound 2.027, N-[2-(6-Chloro-3-ethoxy-2H-indazol-2-yl)-1-cyano-1-methylethyl]-4-trifluoromethoxybenzamide]", "inhibition at 0.15 ppm": "≥ 90"}
{"smiles": "COc1ccc(C(=O)NC(C)(C#N)Cn2cc3c(Cl)cc(Cl)c(Cl)c3n2)cc1F", "note": "(centres unmarked) [Compound 2.227, N-[1-Cyano-1-methyl-2-(4,6,7-trichloro-2H-indazol-2-yl)ethyl]-3-fluoro-4-methoxybenzamide]", "inhibition at 0.15 ppm": "≥ 90"}
{"smiles": "CC(C#N)(Cn1cc2c(Cl)cc(Cl)c(Cl)c2n1)NC(=O)c1cccc(Br)c1", "note": "(centres unmarked) [Compound 2.229, 3-Bromo-N-[1-cyano-1-methyl-2-(4,6,7-trichloro-2H-indazol-2-yl)ethyl]benzamide]", "inhibition at 0.15 ppm": "≥ 90"}
{"smiles": "CC(C#N)(Cn1cc2ncc(Br)cc2n1)NC(=O)c1ccc(Cl)cc1", "note": "(centres unmarked) [Compound 3.046, N-[2-(6-Bromo-2H-pyrazolo[4,3-b]pyridin-2-yl)-1-cyano-1-methylethyl]-4-chlorobenzamide]", "inhibition at 0.15 ppm": "≥ 90"}
{"system": "Haemonchus contortus", "test": "Method A: screening of activity against Haemonchus contortus L1 larvae in microtitre plate (development to L3 / motility)", "settings": "Haemonchus contortus, 96 h; test concentration 0.3 ppm; 4 days assessment", "description": "as §1", "units": {"inhibition at 0.3 ppm": "%"}}
{"smiles": "CC(C#N)(Cn1nc2c(Cl)cc(Cl)c(Cl)c2n1)NC(=O)c1ccc(OC(F)(F)F)cc1", "note": "(single isomer, unassigned; (-)) [Compound 1.097, (−)-N-[1-Cyano-1-methyl-2-(4,5,7-trichloro-2H-benzotriazol-2-yl)-ethyl]-4-trifluoromethoxybenzamide]", "inhibition at 0.3 ppm": "< 90"}
{"system": "Haemonchus contortus", "test": "Method A: screening of activity against Haemonchus contortus L1 larvae in microtitre plate (development to L3 / motility)", "settings": "Haemonchus contortus, 96 h; test concentration 0.6 ppm; 4 days assessment", "description": "as §1", "units": {"inhibition at 0.6 ppm": "%"}}
{"smiles": "CC(C#N)(Cn1nc2cc(Cl)c(Cl)cc2n1)NC(=O)c1ccc(OC(F)(F)F)cc1", "note": "(centres unmarked) [Compound 1.010, N-[1-Cyano-2-(5,6-dichloro-2H-benzotriazol-2-yl)-1-methylethyl]-4-trifluoromethoxybenzamide]", "inhibition at 0.6 ppm": "≥ 90"}
{"smiles": "CCCOc1c2ccc(Cl)cc2nn1CC(C)(C#N)NC(=O)c1ccc(OC(F)(F)F)cc1", "note": "(centres unmarked) [Compound 2.029, N-[2-(6-Chloro-3-propoxy-2H-indazol-2-yl)-1-cyano-1-methylethyl]-4-trifluoromethoxybenzamide]", "inhibition at 0.6 ppm": "≥ 90"}
{"smiles": "CCCCOc1c2ccc(Cl)cc2nn1CC(C)(C#N)NC(=O)c1ccc(OC(F)(F)F)cc1", "note": "(centres unmarked) [Compound 2.031, N-[2-(6-Chloro-3-butoxy-2H-indazol-2-yl)-1-cyano-1-methylethyl]-4-trifluoromethoxybenzamide]", "inhibition at 0.6 ppm": "≥ 90"}
{"smiles": "CC(C#N)(Cn1cc2nc(Br)c(Br)cc2n1)NC(=O)c1ccc(OC(F)(F)F)cc1", "note": "(centres unmarked) [Compound 3.042, N-[1-Cyano-2-(5,6-dibromo-2H-pyrazolo[4,3-b]pyridin-2-yl)-1-methylethyl]-4-trifluoromethoxybenzamide]", "inhibition at 0.6 ppm": "≥ 90"}
{"smiles": "CC(C#N)(Cn1cc2nc(Br)ccc2n1)NC(=O)c1ccc(OC(F)(F)F)cc1", "note": "(centres unmarked) [Compound 3.044, N-[1-Cyano-2-(5-bromo-2H-pyrazolo[4,3-b]pyridin-2-yl)-1-methylethyl]-4-trifluoromethoxybenzamide]", "inhibition at 0.6 ppm": "≥ 90"}
{"smiles": "CC(C#N)(Cn1cc2ncccc2n1)NC(=O)c1ccc(OC(F)(F)F)cc1", "note": "(centres unmarked) [Compound 3.045, N-[1-Cyano-1-methyl-2-(2H-pyrazolo[4,3-b]pyridin-2-yl)ethyl]-4-trifluoromethoxybenzamide]", "inhibition at 0.6 ppm": "≥ 90"}
